Patent US10654853B2, “Spiro-condensed pyrrolidine derivatives as deubiquitylating enzymes (DUB) inhibitors” (MISSION THERAPEUTICS LIMITED, priority 2016, dated 2020)

Target: Cezanne 1 (Homo sapiens (Human), UniProt Q6GQQ9)
Assay: Cezanne 1 biochemical IC50 assay (fluorescence polarisation, TAMRA labelled peptide linked to ubiquitin)
Conditions: Cezanne 1 biochemical IC50 assay; 30 min pre-incubation, read after 2 hr at room temperature; read-out: IC50 range
In short: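 FLAG-tagged Cezanne 1, expressed in HEK293T and FLAG-purified, was preincubated with compound for 30 min at room temperature in Tris pH 7.5 buffer with Tween 20, BSA and β-mercaptoethanol. Reactions were started with 50 nM TAMRA-peptide isopeptide-linked to ubiquitin. Fluorescence polarisation (ex 540/em 590 nm) was read immediately and after 2 h.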

Cezanne 1, sequence (Q6GQQ9 whole entry): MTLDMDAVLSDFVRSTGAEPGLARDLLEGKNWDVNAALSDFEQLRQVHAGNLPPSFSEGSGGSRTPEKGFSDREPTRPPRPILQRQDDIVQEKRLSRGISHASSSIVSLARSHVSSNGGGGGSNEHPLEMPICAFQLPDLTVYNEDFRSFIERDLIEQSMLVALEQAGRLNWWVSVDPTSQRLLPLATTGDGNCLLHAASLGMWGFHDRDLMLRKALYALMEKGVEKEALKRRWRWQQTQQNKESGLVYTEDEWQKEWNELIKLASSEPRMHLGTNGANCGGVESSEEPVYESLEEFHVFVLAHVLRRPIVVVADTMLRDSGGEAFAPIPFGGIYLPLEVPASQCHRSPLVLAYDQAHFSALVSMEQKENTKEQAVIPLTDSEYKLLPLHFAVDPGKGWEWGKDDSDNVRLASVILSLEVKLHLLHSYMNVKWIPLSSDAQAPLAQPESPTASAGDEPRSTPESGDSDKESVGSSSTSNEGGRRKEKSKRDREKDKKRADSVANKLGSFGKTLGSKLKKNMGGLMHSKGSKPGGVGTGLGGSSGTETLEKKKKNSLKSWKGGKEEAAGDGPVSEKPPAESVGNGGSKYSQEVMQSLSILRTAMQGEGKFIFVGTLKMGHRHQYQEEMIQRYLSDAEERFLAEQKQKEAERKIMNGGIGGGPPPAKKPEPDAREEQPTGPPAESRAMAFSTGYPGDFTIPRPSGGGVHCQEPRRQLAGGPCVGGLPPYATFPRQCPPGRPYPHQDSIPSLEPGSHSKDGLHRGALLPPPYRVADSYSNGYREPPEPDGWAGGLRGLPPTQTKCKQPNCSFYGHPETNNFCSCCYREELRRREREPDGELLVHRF

Row | Structure (SMILES) | IC50 [nM]
1 | CC(=O)Nc1cccc(-c2ccc3c(c2)CC2(CCN(C#N)C2)C(=O)N3)c1 (centres unmarked) [Example 112, N-(3-(1-Cyano-2′-oxo-1′,4′-dihydro-2′H-spiro[pyrrolidine-3,3′-quinolin]-6′-yl)phenyl)acetamide] | 100 to 1000
2 | CC(=O)Nc1ccc(-c2ccc3c(c2)CC2(CCN(C#N)C2)C(=O)N3)cc1 (centres unmarked) [Example 113, N-(4-(1-Cyano-2′-oxo-1′,4′-dihydro-2′H-spiro[pyrrolidine-3,3′-quinolin]-6′-yl)phenyl)acetamide] | 100 to 1000
3 | N#CN1CCC2(Cc3cc(-c4ccc(S(=O)(=O)N5CCOCC5)cc4)ccc3NC2=O)C1 (centres unmarked) [Example 116, 6′-(4-(Morpholinosulfonyl)phenyl)-2′-oxo-1′,4′-dihydro-2′H-spiro[pyrrolidine-3,3′-quinoline]-1-carbonitrile] | 100 to 1000
4 | N#CN1CCC2(Cc3cc(-c4cccc(N5CCCCC5)c4)ccc3NC2=O)C1 (centres unmarked) [Example 118, 2′-Oxo-6′-(3-(piperidin-1-yl)phenyl)-1′,4′-dihydro-2′H-spiro[pyrrolidine-3,3′-quinoline]-1-carbonitrile] | 100 to 1000
5 | CC(=O)Nc1ccccc1-c1ccc2c(c1)CC1(CCN(C#N)C1)C(=O)N2 (centres unmarked) [Example 119, N-(2-(1-Cyano-2′-oxo-1′,4′-dihydro-2′H-spiro[pyrrolidine-3,3′-quinolin]-6′-yl)phenyl)acetamide] | 100 to 1000
6 | N#CN1CCC2(Cc3cc(-c4ccc(C(=O)N5CCOCC5)cc4)ccc3NC2=O)C1 (centres unmarked) [Example 120, 6′-(4-(Morpholine-4-carbonyl)phenyl)-2′-oxo-1′,4′-dihydro-2′H-spiro[pyrrolidine-3,3′-quinoline]-1-carbonitrile] | 100 to 1000
7 | N#CN1CCC2(Cc3cc(-c4cccc(S(=O)(=O)N5CCOCC5)c4)ccc3NC2=O)C1 (centres unmarked) [Example 121, 6′-(3-(Morpholinosulfonyl)phenyl)-2′-oxo-1′,4′-dihydro-2′H-spiro[pyrrolidine-3,3′-quinoline]-1-carbonitrile] | 100 to 1000
8 | Cn1cc(-c2ccc3c(c2)CC2(CCN(C#N)C2)C(=O)N3)ccc1=O (centres unmarked) [Example 122, 6′-(1-Methyl-6-oxo-1,6-dihydropyridin-3-yl)-2′-oxo-1′,4′-dihydro-2′H-spiro[pyrrolidine-3,3′-quinoline]-1-carbonitrile] | 1000 to 10000
9 | Cc1nc2cc(-c3ccc4c(c3)CC3(CCN(C#N)C3)C(=O)N4)ccc2s1 (centres unmarked) [Example 123, 6′-(2-Methylbenzo[d]thiazol-5-yl)-2′-oxo-1′,4′-dihydro-2′H-spiro[pyrrolidine-3,3′-quinoline]-1-carbonitrile] | 100 to 1000
10 | Cc1noc(C)c1-c1ccc2c(c1)CC1(CCN(C#N)C1)C(=O)N2 (centres unmarked) [Example 124, 6′-(3,5-Dimethylisoxazol-4-yl)-2′-oxo-1′,4′-dihydro-2′H-spiro[pyrrolidine-3,3′-quinoline]-1-carbonitrile] | 100 to 1000
11 | N#CN1CCC2(Cc3cc(-c4cc(OC(F)(F)F)ccc4Cl)ccc3NC2=O)C1 (centres unmarked) [Example 125, 6′-(2-Chloro-5-(trifluoromethoxy)phenyl)-2′-oxo-1′,4′-dihydro-2′H-spiro[pyrrolidine-3,3′-quinoline]-1-carbonitrile] | 100 to 1000
12 | CN1CCN(c2ccc(-c3ccc4c(c3)CC3(CCN(C#N)C3)C(=O)N4)cc2)CC1 (centres unmarked) [Example 126, 6′-(4-(4-Methylpiperazin-1-yl)phenyl)-2′-oxo-1′,4′-dihydro-2′H-spiro[pyrrolidine-3,3′-quinoline]-1-carbonitrile] | 100 to 1000
13 | N#CN1CCC2(Cc3cc(-c4ccc(C(=O)NCc5ccccc5)cc4)ccc3NC2=O)C1 (centres unmarked) [Example 127, N-Benzyl-4-(1-cyano-2′-oxo-1′,4′-dihydro-2′H-spiro[pyrrolidine-3,3′-quinolin]-6′-yl)benzamide] | 100 to 1000
14 | Cc1n[nH]cc1-c1ccc2c(c1)CC1(CCN(C#N)C1)C(=O)N2 (centres unmarked) [Example 128, 6′-(3-Methyl-1H-pyrazol-4-yl)-2′-oxo-1′,4′-dihydro-2′H-spiro[pyrrolidine-3,3′-quinoline]-1-carbonitrile] | 100 to 1000
15 | N#CN1CCC2(Cc3cc(-c4ccc(CN5CCOCC5)cc4)ccc3NC2=O)C1 (centres unmarked) [Example 129, 6′-(4-(Morpholinomethyl)phenyl)-2′-oxo-1′,4′-dihydro-2′H-spiro[pyrrolidine-3,3′-quinoline]-1-carbonitrile] | 100 to 1000
16 | CN(C)C(=O)c1cccc(-c2ccc3c(c2)CC2(CCN(C#N)C2)C(=O)N3)c1 (centres unmarked) [Example 130, 3-(1-Cyano-2′-oxo-1′,4′-dihydro-2′H-spiro[pyrrolidine-3,3′-quinolin]-6′-yl)-N,N-dimethylbenzamide] | 100 to 1000
17 | Cc1cc(-c2ccc3c(c2)CC2(CCN(C#N)C2)C(=O)N3)ccn1 (centres unmarked) [Example 131, 6′-(2-Methylpyridin-4-yl)-2′-oxo-1′,4′-dihydro-2′H-spiro[pyrrolidine-3,3′-quinoline]-1-carbonitrile] | 100 to 1000
18 | Cc1ccc2[nH]ncc2c1-c1ccc2c(c1)NC(=O)[C@@]1(CCN(C#N)C1)C2 [Example 132, (R)-7′-(5-Methyl-H-indazol-4-yl)-2′-oxo-1′,4′-dihydro-2′H-spiro[pyrrolidine-3,3′-quinoline]-1-carbonitrile] | 100 to 1000
19 | N#CN1CCC2(Cc3ccc(-c4cccc5[nH]ncc45)cc3NC2=O)C1 (centres unmarked) [Example 133, 7′-(1H-Indazol-4-yl)-2′-oxo-1′,4′-dihydro-2′H-spiro[pyrrolidine-3,3′-quinoline]-1-carbonitrile] | 100 to 1000
20 | N#CN1CCC2(Cc3cc(-c4cccc5[nH]ncc45)ccc3NC2=O)C1 (centres unmarked) [Example 134, 6′-(1H-Indazol-4-yl)-2′-oxo-1′,4′-dihydro-2′H-spiro[pyrrolidine-3,3′-quinoline]-1-carbonitrile] | 100 to 1000
21 | N#CN1CCC2(C1)Oc1ncc(-c3cccc4[nH]ncc34)cc1NC2=O (centres unmarked) [Example 135, 7-(1H-Indazol-4-yl)-2-oxo-1,2-dihydrospiro[pyrido[2,3-b][1,4]oxazine-3,3′-pyrrolidine]-1′-carbonitrile] | < 100
22 | Cn1ncc2c(-c3cnc4c(c3)NC(=O)C3(CCN(C#N)C3)O4)cccc21 (centres unmarked) [Example 136, 7-(1-Methyl-1H-indazol-4-yl)-2-oxo-1,2-dihydrospiro[pyrido[2,3-b][1,4]oxazine-3,3′-pyrrolidine]-1′-carbonitrile] | < 100
23 | N#CN1CCC2(C1)Oc1ncc(-c3cccc4c3cnn4CCO)cc1NC2=O (centres unmarked) [Example 137, 7-(1-(2-Hydroxyethyl)-1H-indazol-4-yl)-2-oxo-1,2-dihydrospiro[pyrido[2,3-b][1,4]oxazine-3,3′-pyrrolidine]-1′-carbonitrile] | < 100
24 | COc1ccc(-c2cnc3c(c2)NC(=O)C2(CCN(C#N)C2)O3)c(C)n1 (centres unmarked) [Example 138, 7-(6-Methoxy-2-methylpyridin-3-yl)-2-oxo-1,2-dihydrospiro[pyrido[2,3-b][1,4]oxazine-3,3′-pyrrolidine]-1′-carbonitrile] | 100 to 1000
25 | N#CN1CCC2(C1)Oc1nc(-c3cccc4[nH]ncc34)ccc1NC2=O (centres unmarked) [Example 139, 6-(1H-Indazol-4-yl)-2-oxo-1,2-dihydrospiro[pyrido[2,3-b][1,4]oxazine-3,3′-pyrrolidine]-1′-carbonitrile] | 100 to 1000
26 | COCCn1ncc2c(-c3cnc4c(c3)NC(=O)C3(CCN(C#N)C3)O4)cccc21 (centres unmarked) [Example 140, 7-(1-(2-Methoxyethyl)-1H-indazol-4-yl)-2-oxo-1,2-dihydrospiro[pyrido[2,3-b][1,4]oxazine-3,3′-pyrrolidine]-1′-carbonitrile] | 100 to 1000
